Laboratory results: PubChem BioAssay AID435021 (Vanderbilt High Throughput Screening Facility, 2010)
Activity calls are given as the source filed them.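 Rule for the calls: active = response to a near-maximal acetylcholine dose cut to 15% or less of untreated controls; inactive = the rest.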

Biological target: Muscarinic acetylcholine receptor M1 (Homo sapiens) (UniProt P11229)
Test: inhibition of ACh EC80 calcium response at hM1 – cell-based, CHO-K1 hM1, Fluo-4 calcium, SAR follow-up (AID 435021)
Conditions: at 30 µM, stronger effect = lower value

Sequence of Muscarinic acetylcholine receptor M1 (Homo sapiens) (P11229 whole entry, looked up): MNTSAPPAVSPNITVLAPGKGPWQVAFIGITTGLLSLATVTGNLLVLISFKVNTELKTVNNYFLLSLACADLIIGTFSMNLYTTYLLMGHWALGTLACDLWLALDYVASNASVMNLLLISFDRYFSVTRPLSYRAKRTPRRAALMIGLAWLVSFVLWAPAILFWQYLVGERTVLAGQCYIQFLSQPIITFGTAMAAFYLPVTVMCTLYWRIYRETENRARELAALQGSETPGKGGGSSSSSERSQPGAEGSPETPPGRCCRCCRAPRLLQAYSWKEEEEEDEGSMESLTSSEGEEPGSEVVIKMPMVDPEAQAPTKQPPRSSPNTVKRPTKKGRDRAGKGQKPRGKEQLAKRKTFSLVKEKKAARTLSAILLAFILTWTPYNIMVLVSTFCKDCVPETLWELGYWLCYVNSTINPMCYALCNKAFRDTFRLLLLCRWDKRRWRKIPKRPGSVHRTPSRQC

Row | remaining EC80 response | Compound
1 | 13.3% | O=C(CCNS(=O)(=O)c1cccc2nsnc12)N1CCN(c2nc3ccccc3o2)CC1
2 | 16.5% (inactive) | O=C(CCNS(=O)(=O)c1cccc2nsnc12)N1CCN(c2ccccn2)CC1
3 | 13.6% | O=C(C(F)CNS(=O)(=O)c1cccc2nsnc12)N1CCN(c2ccncc2)CC1 (stereo unspecified)
4 | 31.6% (inactive) | O=C(CCNS(=O)(=O)c1cccc2nsnc12)N1CCN(c2nc(Cl)ns2)CC1
5 | 63.5% (inactive) | O=C(CCNS(=O)(=O)c1cccc2nsnc12)N1CCN(c2ccccc2F)CC1
6 | 2.42% | O=C(C(F)CNS(=O)(=O)c1cccc2nonc12)N1CCN(c2ccncc2)CC1 (stereo unspecified)
7 | 3.23% | O=C(CCNS(=O)(=O)c1cccc2nsnc12)N1CCN(c2cccc(F)n2)CC1
8 | 14.4% | COc1cccc(N2CCN(C(=O)CCNS(=O)(=O)c3cccc4nsnc34)CC2)n1
9 | 92.7% (inactive) | COc1cccnc1N1CCN(C(=O)CCNS(=O)(=O)c2ccc([N+](=O)[O-])cc2)CC1
10 | 91.8% (inactive) | COc1cccnc1N1CCN(C(=O)CCNS(=O)(=O)c2ccccc2C#N)CC1
11 | 43.9% (inactive) | N#Cc1ccccc1N1CCN(C(=O)CCNS(=O)(=O)c2cccc3nsnc23)CC1
12 | 29.7% (inactive) | COc1cccnc1N1CCN(C(=O)C(F)CNS(=O)(=O)c2cccc3nonc23)CC1 (stereo unspecified)
13 | 10.1% | O=C(CCNS(=O)(=O)c1cccc2nsnc12)N1CCN(c2cc(Cl)ccn2)CC1
14 | 97% (inactive) | COc1cccnc1N1CCN(C(=O)CCNS(=O)(=O)c2cccc(C#N)c2)CC1
15 | 98.5% (inactive) | COc1cccnc1N1CCN(C(=O)CCNS(=O)(=O)c2cn(C)c(C)n2)CC1
16 | 56.6% (inactive) | O=C([C@@H](F)CNS(=O)(=O)c1cccc2nonc12)N1CCN(c2ccncc2)CC1
17 | 35.8% (inactive) | CN(CCC(=O)N1CCN(c2ccncc2)CC1)S(=O)(=O)c1cccc2nsnc12
18 | 8.91% | O=C(CCNS(=O)(=O)c1cccc2nsnc12)N1CCN(c2ccnc(Cl)c2)CC1
19 | 6.52% | O=C(CCNS(=O)(=O)c1cccc2nsnc12)N1CCN(c2cc(F)ccn2)CC1
20 | 5.92% | O=C(CCNS(=O)(=O)c1cccc2nsnc12)N1CCN(c2cccc(Cl)n2)CC1
21 | 8.19% | O=C([C@H](F)CNS(=O)(=O)c1cccc2nonc12)N1CCN(c2ccncc2)CC1

Row | remaining EC80 response | Compound
22 | 102% (inactive) | COc1ccccc1N1CCN(C(=O)CCNS(=O)(=O)c2cccc3nsnc23)CC1
23 | 62.7% (inactive) | O=C(CCNS(=O)(=O)c1cccc2nsnc12)N1CCN(c2ncccn2)CC1
24 | 35.7% (inactive) | Cc1cccc(N2CCN(C(=O)CCNS(=O)(=O)c3cccc4nsnc34)CC2)n1
25 | 5.68% | O=C(CCNS(=O)(=O)c1cccc2nsnc12)N1CCN(c2nccs2)CC1
26 | 6.19% | O=C(CCNS(=O)(=O)c1cccc2nsnc12)N1CCN(c2nc3ccccc3s2)CC1
27 | -0.332% | O=C(CCNS(=O)(=O)c1cccc2nsnc12)N1CCN(c2ccc(Br)cn2)CC1
28 | 90% (inactive) | COc1cccnc1N1CCN(C(=O)CCNS(=O)(=O)c2ccccc2[N+](=O)[O-])CC1
29 | 45.8% (inactive) | Cc1ccnc(N2CCN(C(=O)CCNS(=O)(=O)c3cccc4nsnc34)CC2)c1
30 | 77.1% (inactive) | COc1cccnc1N1CCN(C(=O)CCNS(=O)(=O)c2ccc3nsnc3c2)CC1
31 | 35.4% (inactive) | O=C(CCNS(=O)(=O)c1cccc2nsnc12)N1CCN(c2cc(C(F)(F)F)ccn2)CC1
32 | 64.7% (inactive) | O=C(CCNS(=O)(=O)c1cccc2nsnc12)N1CCN(c2ncccc2C(F)(F)F)CC1
33 | 97.5% (inactive) | COc1cccnc1N1CCN(C(=O)CCNS(=O)(=O)c2cccc(-c3noc(C)n3)c2)CC1
34 | 13.6% | O=C(CCNS(=O)(=O)c1cccc2nsnc12)N1CCN(c2cccnc2)CC1
35 | 19.4% (inactive) | COc1cccnc1N1CCN(C(=O)C(F)CNS(=O)(=O)c2cccc3nsnc23)CC1 (stereo unspecified)
36 | 0.916% | O=C(CCNS(=O)(=O)c1cccc2nonc12)N1CCN(c2ccc(Br)cn2)CC1
37 | 1.43% | Cc1cnccc1N1CCN(C(=O)CCNS(=O)(=O)c2cccc3nsnc23)CC1
38 | 3.02% | O=C(CCNS(=O)(=O)c1cccc2nonc12)N1CCN(c2ccncc2)CC1
39 | 3.37% | Cc1cc(Cl)nc(N2CCN(C(=O)CCNS(=O)(=O)c3cccc4nsnc34)CC2)c1C#N
40 | 7.16% | O=C(CCNS(=O)(=O)c1cccc2nsnc12)N1CCN(c2ncc(Cl)cn2)CC1
41 | 1.97% | O=C(CCNS(=O)(=O)c1cccc2nsnc12)N1CCN(c2ccncc2)CC1
